This is an account of results in US20170305912A1, “PROCESS FOR THE PREPARATION OF 3-PHENYL/HETEROARYL-6-PHENOXY-8-ALKYLAMINO-IMIDAZO[1,2-B]PYRIDAZINE DERIVATIVES” (Bayer Pharma Aktiengesellschaft, priority 2014, published 2017).

This series is described as follows: Particle size distribution in a dry dispersion (Sympatec Helos, method AM-PE 69). It is filed as physicochemical. To be noted: cumulative undersize distribution by volume. As to the method:
It turned out that the crystalline form of N-cyclopropyl-4-{6-(2,3-difluor-4-methoxyphenoxy)-8-[(3,3,3-trifluorpropyl)amino]imidazo[1,2-b]pyridazin-3-yl}-2-methylbenzamide prepared by the method of the present invention comprising steps (a) to (g), supra, is characterized by an advantageous particle size distribution. […] The particle size distribution was determined in a dry dispersion using the device “Sympatec Helos” and the method “AM-PE 69” (Pharmdoss).
Batch Nos. 1 to 5 were prepared by the method of the present invention comprising steps (a) to (c), supra. In case of Batch Nos. 2 to 5, the preparation method comprised the additional steps (d) to (g) (in case of Batch No. 1 steps (d) to (g) were not applied).
It can be clearly seen that the particles of Batch Nos. 2 to 5 are smaller than the particles of Batch No. 1 and the distribution is more uniform. In case of Batch Nos. 2 to 5, further micronization of the particles might not be necessary in order to increase the solubility or bioavailability of the final drug.

The mark [1] stands for this setting: listed as 2, prepared with steps (d) to (g).
[2] abbreviates: prepared without steps (d) to (g).
[3] abbreviates: listed as 4, prepared with steps (d) to (g).
Setting [4] is: listed as 5, prepared with steps (d) to (g).

On to “6,8-Bis(2,3-difluoro-4-methoxyphenoxy)-3-iodoimidazo[1,2-b]pyridazine [Example 1]”, for which, under setting [1], the “X10 (particle size distribution)” value is listed as 1.4 μm, the “X50 (particle size distribution)” value turned out to be 5.3 μm and the “X90 (particle size distribution)” value came to 36.1 μm. Under setting [2], the “X10 (particle size distribution)” value came out at 2.0 μm, the “X50 (particle size distribution)” value worked out at 18.2 μm and the “X90 (particle size distribution)” value is 249.0 μm.

`COc1ccc(Oc2cc(Oc3ccc(OC)c(F)c3F)c3ncc(-c4ccc(C(=O)NC5CC5)c(C)c4)n3n2)c(F)c1F` [Example 3, 4-[6,8-bis(2,3-difluoro-4-methoxyphenoxy)imidazo[1,2-b]pyridazin-3-yl]-N-cyclopropyl-2-methylbenzamide]: under setting [3], the “X10 (particle size distribution)” value was 1.3 μm, the “X50 (particle size distribution)” value is 4.2 μm and the “X90 (particle size distribution)” value was found to be 13.2 μm. In addition, under setting [4], the “X10 (particle size distribution)” value was found to be 1.2 μm, the “X50 (particle size distribution)” value is 4.0 μm and the “X90 (particle size distribution)” value came out at 12.4 μm. Where the note is “prepared with steps (d) to (g)”, the “X10 (particle size distribution)” value came to 1.2 μm, the “X50 (particle size distribution)” value is on record as 4.1 μm and the “X90 (particle size distribution)” value is on record as 9.9 μm.
